We go through 1 molecule from patent US8435962B2, “Triacetyl-3-hydroxyphenyladenosine and its use for regulating blood fat” (Institute of Mataria Medica, Chinese Academy of Medical …, priority 2009, dated 2013).

SMILES strings stand for the structures.

Data set [1] has as its system hyperlipidemia hamsters. As to the kind of experiment: Serum lipid level in hyperlipidemic hamsters after drug discontinuance (2 weeks). It counts as in vivo, hamster. The settings on record: hamsters, 50 mg/kg; 2 weeks after drug discontinuance, high-fat diet continued.
Description: (§2) After a week of accommodation, except control group (n=12) all the hamsters (n=72) were fed with high-fat laboratory chow.
(§3) After four weeks high-fat diet modeling, rats were treated with different drugs by intragastric administration. Control animals received an equal volume of vehicle.
(§4) At the end of 4 weeks drug treatment, animals were fasted for 12 hours (10 of each group). The next day, they were anesthetized by intraperitoneal injection of pentobarbitale sodium (45 mg/kg). Blood samples were collected from the abdominal aorta within 15 min, and plasma was separated. Plasma TC, TG, HDL-C, LDL-C, ALT, FFA were detected. Liver and the retroperitoneal fat were separated and weighed, the liver and fat index were calculated. Liver SOD and MDA were detected by kit after homogenized. The left hamsters (10 each group) drug treatment was withdrawn while high-fat diet modeling continued. Two weeks later, blood sample was collected from the orbit and serum TC and TG were detected.
In data set [2] the test system is hyperlipidemia rats. As to the kind of experiment: Effects on hepatic SOD activity and MDA content of hyperlipidemia rats. As to conditions: 50 mg/kg intragastric, 4 weeks. The class given is in vivo, rat. The text has this: (§1) Control animals received an equal volume of vehicle.
Data set [3] deals with hyperlipidemia rats. Kind of data set: Effects on liver weight and serum ALT activity of hyperlipidemia rats. As to conditions: 50 mg/kg intragastric, 4 weeks.
Description: (§5) After a week of accommodation, except control group (20 rat), all the rats (120 rats) were fed with high-fat laboratory chow.
as §3
(§6) At the end of 4 weeks drug treatment, animals were fasted for 12 hours before anesthetizing by intraperitoneal injection of pentobarbitale sodium (45 mg/kg), and anticoagulated by 100 U/kg heparin through caudal vein injection. Blood samples were collected from the abdominal aorta within 15 min, and serum was separated. Serum TC, TG, HDL-C, LDL-C, ALT, FFA were detected. Liver and the fat pad behind the belly were separated and weighed, the liver and retroperitoneal fat were weighed too. […] The left rats (10 rats each group) drug treatment was withdrawn while high-fat diet modeling continued. Two weeks later, blood sample was collected from the orbit, and serum TC, TG were detected.
Data set [4] relates to hyperlipidemia rats. Kind of data set: Effects on plasma lipid in hyperlipidemia rats (high-fat diet).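 Further: rats kept on high-fat chow for 4 weeks before dosing, serum taken from abdominal aorta after a 12 h fast at end of treatment, controls given vehicle.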 The class given is in vivo, rat. As to conditions: 50 mg/kg intragastric, 4 weeks.
Description: as §5, §3, §6
The subject of data set [5] is hyperlipidemia hamsters. As to the kind of experiment: Effects on hepatic SOD activity and MDA concentration in hyperlipidemic hamsters' livers. The class given is in vivo, hamster. As to conditions: 50 mg/kg intragastric, 4 weeks.
Description: as §2, §3, §4
Data set [6] concerns hyperlipidemia hamsters. As to the kind of experiment: Effects on plasma lipid in hyperlipidemia hamsters (high-fat diet).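 Further: hamsters given high-fat chow for four weeks, then dosed by gavage, plasma lipids measured in abdominal aortic blood after a 12 h fast, compared with vehicle-treated controls.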 It counts as in vivo, hamster. The settings on record: 50 mg/kg intragastric, 4 weeks.
Description: as §2, §3, §4
Data set [7] relates to hyperlipidemia hamsters. The settings on record: hamster, in vivo, 50 mg/kg.
Description: as §2, §3, §4
The subject of data set [8] is hyperlipidemia rats. The settings on record: rat, in vivo, 50 mg/kg.
Description: as §5, §3, §6
The subject of data set [9] is hyperlipidemia rats. Kind of data set: Serum lipid of hyperlipidemia rats after withdrawal from drugs for 2 weeks. It counts as in vivo, rat. As to conditions: rats, 50 mg/kg; 2 weeks after drug withdrawal, high-fat diet continued.
Description: as §5, §3, §6
Data set [10] relates to hyperlipidemia rats. As to the kind of experiment: Effects on retroperitoneal fat weight of hyperlipidemic rats. It counts as in vivo, rat. As to conditions: hyperlipidemic rats, 50 mg/kg intragastric, 4 weeks.
Description: as §1

Turning to `CC(C)OC(=O)C(C)(C)Oc1ccc(C(=O)c2ccc(Cl)cc2)cc1` [Fenofibrate, reference compound], in the data set with hyperlipidemia hamsters [1], the TC was 5.29 ± 2.13 mmol/L and the TG is given as 4.16 ± 0.86 mmol/L. Also, in the data set on hyperlipidemia rats [2], the hepatic MDA turned out to be 9.35 ± 2.4 nmol/mg protein and the “hepatic SOD” value was found to be 103.6 ± 27.9 U/g pr. In addition, the Liver weight in the data set on hyperlipidemia rats [3] ('rat' in hamster Table 9) is 4.08 ± 0.36 g/100 g body weight. In the data set on hyperlipidemia rats [3] (hyperlipidemia rats), this molecule yielded a Liver weight of 4.08 ± 0.36 g/100 g body weight. In the data set with hyperlipidemia rats [4], this molecule showed an FFA of 1.13 ± 0.30 mmol/L, an HDL-C of 0.59 ± 0.17 mmol/L, an HDL/LDL of 0.53 ± 0.16 and an LDL-C of 1.16 ± 0.28 mmol/L. In the data set on hyperlipidemia rats [4], this molecule returned a TC of 2.23 ± 0.53 mmol/L and a TG of 0.70 ± 0.19 mmol/L. The “hepatic SOD” value in the data set on hyperlipidemia hamsters [5] is recorded as 94.0 ± 16.3 U/g pr. For the same molecule, in the data set with hyperlipidemia hamsters [6], the HDL-C was 1.48 ± 0.40 mmol/L, the HDL/LDL worked out at 0.50 ± 0.13, the LDL-C turned out to be 3.04 ± 0.82 mmol/L and the TC worked out at 4.76 ± 1.58 mmol/L. Moreover, the TG in the data set with hyperlipidemia hamsters [6] stood at 3.80 ± 1.04 mmol/L. The molecule further came in with an ALT with hyperlipidemia hamsters [7] of 97.3 ± 37.8 U/L. The “serum ALT” value in the data set with hyperlipidemia rats [8] is on record as 40.3 ± 18.0 U/L. In the data set on hyperlipidemia rats [9], the TC is 2.08 ± 0.49 mmol/L and the TG came out at 1.03 ± 0.19 mmol/L. In the data set on hyperlipidemia rats [10], the “Fat weight (retroperitoneal fat)” value is on record as 0.68 ± 0.16 g/100 g body weight.
